Reference: patent publication US7989464B2, “mGluR1 antagonists as therapeutic agents” (Schering Corporation, priority 2004, dated 2011)
Like-named read-outs stand apart in the source and are kept apart here.

Target: T1, hmGluR1 receptor (Homo sapiens, UniProt Q13255)
T1 construct: expressed in transfected cells
Test: IC50 determination: intracellular calcium mobilization (FLIPR) upon Quisqualate stimulation in CHO cells stably expressing hmGluR1
Type: cell-based
Conditions: against Quisqualate 1 μM (EC80)
Method: A CHO cell line stably expressing hmGluR1 receptor was established. One day prior to assay, cells were split in growth media at concentration of 50,000 cells/well in a volume of 100 μl and seeded into black clear-bottom 96-well plates. After two to six hours, when cells were well attached to the plate, growth medium was replaced with assay medium (100 μL) consisting of DMEM high glucose, supplemented with GPT (1 U/mL) and Sodium pyruvate, 1 mM. Following overnight incubation, medium was discarded and cells were loaded for 2 h with dye from the Calcium 3 Assay Reagent Kit (Molecular Devices, # R8033), prepared according to manufacturers' instructions. […] Test compounds were added 10 minutes before Quisqualate.

[1] = FLIPR calcium mobilization, read-out: IC50 Class
[2] = class symbols, read-out: mGIuR 1 IC50
[3] = FLIPR calcium mobilization, read-out: mGluR1 IC50

T1 sequence (Q13255 19-1194): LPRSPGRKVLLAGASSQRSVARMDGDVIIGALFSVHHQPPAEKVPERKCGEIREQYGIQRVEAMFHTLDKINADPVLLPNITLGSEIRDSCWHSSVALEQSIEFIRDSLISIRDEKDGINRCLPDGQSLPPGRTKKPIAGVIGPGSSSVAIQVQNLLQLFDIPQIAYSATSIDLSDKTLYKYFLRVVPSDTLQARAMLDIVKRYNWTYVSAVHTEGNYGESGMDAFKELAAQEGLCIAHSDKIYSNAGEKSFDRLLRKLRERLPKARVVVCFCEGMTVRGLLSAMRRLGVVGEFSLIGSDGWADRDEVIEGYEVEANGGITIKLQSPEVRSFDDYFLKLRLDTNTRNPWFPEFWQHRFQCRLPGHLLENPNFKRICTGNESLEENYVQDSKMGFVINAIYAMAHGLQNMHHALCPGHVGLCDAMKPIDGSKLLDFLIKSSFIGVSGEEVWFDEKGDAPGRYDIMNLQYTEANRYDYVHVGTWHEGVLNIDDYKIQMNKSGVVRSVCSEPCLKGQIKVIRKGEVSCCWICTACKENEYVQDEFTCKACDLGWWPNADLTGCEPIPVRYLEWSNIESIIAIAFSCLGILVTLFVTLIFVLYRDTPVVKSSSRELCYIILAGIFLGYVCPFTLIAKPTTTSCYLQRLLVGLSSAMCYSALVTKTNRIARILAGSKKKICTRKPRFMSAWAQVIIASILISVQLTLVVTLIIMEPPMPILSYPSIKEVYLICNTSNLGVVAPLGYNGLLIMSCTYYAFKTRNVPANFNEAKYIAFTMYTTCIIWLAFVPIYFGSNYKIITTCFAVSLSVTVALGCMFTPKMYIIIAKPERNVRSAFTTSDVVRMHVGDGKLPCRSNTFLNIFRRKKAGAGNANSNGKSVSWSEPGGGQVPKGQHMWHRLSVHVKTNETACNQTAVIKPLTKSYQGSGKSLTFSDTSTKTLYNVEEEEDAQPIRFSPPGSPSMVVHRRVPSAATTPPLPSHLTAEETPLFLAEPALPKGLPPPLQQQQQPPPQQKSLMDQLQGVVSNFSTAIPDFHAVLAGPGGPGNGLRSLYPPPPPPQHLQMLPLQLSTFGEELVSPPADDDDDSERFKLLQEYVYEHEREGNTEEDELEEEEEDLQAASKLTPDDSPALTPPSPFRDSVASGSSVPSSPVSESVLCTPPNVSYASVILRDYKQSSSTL

Row | Structure (SMILES) | IC50 [1] | IC50 [2] | also measured
1 | CNc1ccnc2sc3c(=O)n(-c4ccc5c(c4)CCO5)cnc3c12 [28BR] | < 50 nM | – | –
2 | CN(CCO)c1ccnc2sc3c(=O)n(-c4ccc(Br)cc4)cnc3c12 [28HI] | < 50 nM | – | –
3 | O=c1c2sc3nccc(-n4cccn4)c3c2ncn1C1CCCCC1 [30B] | – | > 1000 nM | –
4 | O=c1c2sc3nccc(N4CCC[C@@H]4CO)c3c2ncn1-c1ccc(Cl)cc1 [28GI] | > 1000 nM | – | –
5 | CN(C)c1ccnc2sc3c(=O)n(N)cnc3c12 [60H] | – | > 1000 nM | –
6 | COc1ccccc1-n1cnc2c(sc3nc(N4CCOCC4)c4c(c32)CC(C)(C)OC4)c1=O [P-5] | – | 150 to 1000 nM | –
7 | CN(C)c1ccnc2sc3c(=O)n(-c4ccc(Br)c(F)c4)cnc3c12 [7DV] | – | < 50 nM | IC50 [3]: 1.71 nM
8 | C#CCN(C)c1ccnc2sc3c(=O)n(-c4ccc(Cl)cc4)cnc3c12 [28DX] | < 50 nM | – | –
9 | Cc1ccc(-n2cnc3c(sc4nccc(N(C)C)c43)c2=O)cc1Br [7DQ] | – | < 50 nM | –
10 | COc1ccnc2sc3c(=O)n(-c4ccc(F)cc4)cnc3c12 [compound 180] | 150 to 1000 nM | – | –
11 | CN(C)c1ccnc2sc3c(=O)n(-c4ccc5[nH]c(C(F)(F)F)nc5c4)cnc3c12 [7BD] | – | > 1000 nM | –
12 | CCN(C)c1ccnc2sc3c(=O)n(-c4ccc5c(c4)OCO5)cnc3c12 [28IE] | < 50 nM | – | –
13 | CC(C)c1ccc(-n2cnc3c(sc4nccc(N(C)C)c43)c2=O)cc1 [7BA] | – | 150 to 1000 nM | –
14 | CN(C)c1ccnc2sc3c(=O)n(-c4ccccn4)cnc3c12 [7U] | – | 50 to 150 nM | –
15 | COc1ccc(-n2cnc3c(sc4nccc(NC5CC5)c43)c2=O)cc1 [28AL] | – | < 50 nM | –
16 | CCNc1ccnc2sc3c(=O)n(-c4ccc(OC)cc4C)cnc3c12 [28BO] | < 50 nM | – | –
17 | CCN(CC)c1ccnc2sc3c(=O)n(-c4ccc(OC)cc4)cnc3c12 [28AQ] | – | 50 to 150 nM | –
18 | CN(C)c1ccnc2sc3c(=O)n(C4CCCC(C(=O)O)C4)cnc3c12 (centres unmarked) [28EJ] | > 1000 nM | – | –
19 | O=c1c2sc3nccc(NCC4CC4)c3c2ncn1-c1ccc2occc2c1 [28BX] | 150 to 1000 nM | – | –

Row | Structure (SMILES) | IC50 [1] | IC50 [2] | also measured
20 | C=CCNc1ccnc2sc3c(=O)n(-c4ccc(OC)c(F)c4)cnc3c12 [28DT] | < 50 nM | – | –
21 | Cc1cc(N(C)C)c2c(n1)sc1c(=O)n(-c3ccc(Br)cc3)cnc12 [7CY] | – | < 50 nM | –
22 | CC(O)CCNc1ccnc2sc3c(=O)n(-c4ccc(Cl)cc4)cnc3c12 (centres unmarked) [28HM] | < 50 nM | – | –
23 | Cc1nc2ccc(-n3cnc4c(sc5nccc(N(C)C)c54)c3=O)cc2[nH]1 [7BV] | – | > 1000 nM | –
24 | COc1ccc(-n2cnc3c(sc4nccc(NCCCO)c43)c2=O)cc1 [28HK] | < 50 nM | – | –
25 | CN(C)c1ccnc2sc3c(=O)n(-c4ccc5c(c4)CC(=O)N5)cnc3c12 [7BE] | – | > 1000 nM | –
26 | COc1ccc(-n2cnc3c(sc4nc(C)cc(N(C)C)c43)c2=O)cc1F [7CL] | – | 50 to 150 nM | –
27 | COc1cc(-n2cnc3c(sc4nccc(N(C)C)c43)c2=O)c(OC)cc1Cl [7V] | – | > 1000 nM | –
28 | CN(C)c1ccnc2sc3c(=O)n(-c4cccc(O)c4)cnc3c12 [7AV] | – | < 50 nM | –
29 | COc1ccc(-n2cnc3c(sc4nccc(NCCO)c43)c2=O)cc1 [28DB] | < 50 nM | – | –
30 | CSc1ccc(-n2cnc3c(sc4nc(C)cc(N(C)C)c43)c2=O)cc1 [7DA] | – | 150 to 1000 nM | –
31 | O=c1c2sc3nccc(NCCCO)c3c2ncn1-c1ccc2c(c1)CCO2 [28CJ] | < 50 nM | – | –
32 | CCOC(=O)N1CCC(n2cnc3c(sc4nccc(N(C)C)c43)c2=O)CC1 [7J] | – | > 1000 nM | –
33 | CCNc1ccnc2sc3c(=O)n(-c4ccc(OC)c(F)c4)cnc3c12 [28FZ] | < 50 nM | – | –
34 | Cc1ccc(-n2cnc3c(sc4nccc(NC5CCOCC5)c43)c2=O)cc1 [28DG] | 150 to 1000 nM | – | –
35 | O=c1c2sc3nccc(C4CCCC4)c3c2ncn1C1CCCCC1 [29B] | – | > 1000 nM | –
36 | CN(C)c1ccnc2sc3c(=O)n(-c4ccc(CC#N)cc4)cnc3c12 [7BC] | – | > 1000 nM | –
37 | Cc1cc(N(C)C)c2c(n1)sc1c(=O)n(-c3ccc(Cl)cc3)cnc12 [7CM] | – | < 50 nM | –
38 | Cc1ccc(-n2cnc3c(sc4nccc(NN)c43)c2=O)cc1 [28DK] | 150 to 1000 nM | – | –

Row | Structure (SMILES) | IC50 [1] | IC50 [2] | also measured
39 | CN(C)c1ccnc2sc3c(=O)n(CC4CCCO4)cnc3c12 (centres unmarked) [15F] | – | 150 to 1000 nM | –
40 | Cc1nn(C)c(C)c1-n1cnc2c(sc3nccc(N(C)C)c32)c1=O [15AC] | – | > 1000 nM | –
41 | CCN(C)c1ccnc2sc3c(=O)n(-c4ccc(OC)c(F)c4)cnc3c12 [28IA] | < 50 nM | – | –
42 | CCN(C)c1ccnc2sc3c(=O)n(-c4ccc(OC)cc4C)cnc3c12 [28BV] | < 50 nM | – | –
43 | CN(C)c1ccnc2sc3c(=O)n(NC4CCCCC4)cnc3c12 [60G] | – | < 50 nM | –
44 | CCN(C)c1ccnc2sc3c(=O)n(-c4ccc5occc5c4)cnc3c12 [28BU] | < 50 nM | – | –
45 | Cc1ccc(-n2cnc3c(sc4ncc(I)c(N)c43)c2=O)cc1 [compound 175] | < 50 nM | – | IC50 [3]: 0.76 nM
46 | CN(C)c1c(Cl)ncc2sc3c(=O)n(-c4ccc(Cl)cc4)cnc3c12 [compound 54] | – | 150 to 1000 nM | –
47 | Cc1noc2cc(F)c(-n3cnc4c(sc5nccc(N(C)C)c54)c3=O)cc12 [28EL] | > 1000 nM | – | –
48 | CN(C)c1ccnc2sc3c(=O)n(C4CCCCC4)cnc3c12 [7Q] | – | < 50 nM | IC50 [3]: 0.35 nM
49 | CNc1c(C#N)cnc2sc3c(=O)n(-c4ccc(OC)cc4)cnc3c12 [28FQ] | 50 to 150 nM | – | –
50 | CN(C)c1ccnc2sc3c(=O)n(-c4csc5ccccc45)cnc3c12 [15AG] | – | < 50 nM | –
51 | CNc1ccnc2sc3c(=O)n(-c4ccc(OC)c(F)c4)cnc3c12 [7CA] | – | < 50 nM | –
52 | O=c1c2sc3nccc(N4CCNCC4)c3c2ncn1C1CCCCC1 [28U] | – | > 1000 nM | –
53 | Cc1ccc(-n2cnc3c(sc4nccc(NCCCO)c43)c2=O)cc1 [28CX] | < 50 nM | – | –
54 | CN(C)c1c(C=O)cnc2sc3c(=O)n(C4CCCCC4)cnc3c12 [compound 45] | – | < 50 nM | –
55 | CCc1ccc(-n2cnc3c(sc4nccc(N(C)CC)c43)c2=O)cc1 [28BS] | < 50 nM | – | –
56 | CN(C)c1ccnc2sc3c(=O)n(-c4ccc5[nH]c(=O)[nH]c5c4)cnc3c12 [7CS] | – | 150 to 1000 nM | –

Further lines, with some results ahead:

Row | IC50 [1] | IC50 [2] | Structure (SMILES) | also measured
57 | 50 to 150 nM | – | COc1ccc(Nc2ncnc3sc4c(=O)n(-c5ccc(C)cc5)cnc4c23)cc1 [95GJ] | –
58 | – | < 50 nM | CCNc1ccnc2sc3c(=O)n(-c4ccc(C)cc4)c(C)nc3c12 [113H] | –
59 | 150 to 1000 nM | – | CCNc1nncc2sc3c(=O)n(-c4ccc(C)cc4)cnc3c12 [167I] | –
60 | > 1000 nM | – | CN(C)c1cccc2sc3c(=O)n(-c4cccc(F)c4F)cnc3c12 [103O] | –
61 | – | < 50 nM | CCNc1ccnc2sc3c(=O)n(-c4ccc5c(c4)OCO5)cnc3c12 [131E] | –
62 | – | < 50 nM | C=CCNc1ccnc2sc3c(=O)n(C4CCCCC4)cnc3c12 [72B] | –
63 | – | > 1000 nM | Cc1ccc(-n2cnc3c(sc4nccc(OC5CCCC5)c43)c2=O)cc1 [66C] | –
64 | 150 to 1000 nM | – | COc1ncnc2sc3c(=O)n(-c4ccc(C)cc4)cnc3c12 [95FN] | –
65 | < 50 nM | – | C#CCNc1ncnc2sc3c(=O)n(-c4ccc(C)cc4)cnc3c12 [95EH] | –
66 | < 50 nM | – | O=c1c2sc3ncnc(NC4CC4)c3c2ncn1-c1ccc2occc2c1 [95AV] | –
67 | 150 to 1000 nM | – | COc1ccc(-n2cnc3c(sc4ncnc(NCc5ccco5)c43)c2=O)cc1 [95GQ] | –
68 | > 1000 nM | – | Cc1ccc(-n2cnc3c(sc4cnnc(NCCCO)c43)c2=O)cc1 [167F] | –
69 | – | < 50 nM | CN(C)c1ncnc2sc3c(=O)n(-c4ccc5c(c4)CCO5)cnc3c12 [95E] | –
70 | 50 to 150 nM | – | C=CCNc1ncnc2sc3c(=O)n(-c4ccc(OC)c(F)c4)cnc3c12 [95BN] | –
71 | > 1000 nM | – | COc1ccnc2sc3c(=O)n(-c4ccc(C5CC5)cc4)cnc3c12 [137H] | –
72 | < 50 nM | – | O=c1c2sc3ncnc(NCC(F)(F)F)c3c2ncn1-c1ccc(Br)cc1 [95EE] | –
73 | – | < 50 nM | Cc1ccc(-n2cnc3c(sc4nc(N)nc(N)c43)c2=O)cc1 [71A] | –
74 | < 50 nM | – | CNc1ncnc2sc3c(=O)n(-c4ccc(F)cc4)cnc3c12 [95DC] | –
75 | – | > 1000 nM | CN(C)c1ccnc2c1c1ncn(-c3ccc4ncsc4c3)c(=O)c1n2C [134E] | –
76 | > 1000 nM | – | CN(C)c1cccc2sc3c(=O)n(-c4ccccc4Cl)cnc3c12 [103G] | –
77 | – | > 1000 nM | CCC(=O)Nc1ccnc2sc3c(=O)n(C4CCCCC4)cnc3c12 [73A] | –
78 | 50 to 150 nM | – | Cc1ccc(-n2cnc3c(sc4nccc(NC5CC5)c43)c2=O)c(F)c1 [131M] | –
79 | < 50 nM | – | CCCNc1ncnc2sc3c(=O)n(-c4ccc(C)cc4)cnc3c12 [95FG] | –
80 | < 50 nM | – | O=c1c2sc3ncnc(NC4CC4)c3c2ncn1-c1ccc2scnc2c1 [95BA] | –
81 | – | < 50 nM | CN(C)c1ncnc2sc3c(=O)n(-c4ccc5ncsc5c4)cnc3c12 [95C] | –
82 | < 50 nM | – | O=c1c2sc3ncnc(NCC(F)(F)F)c3c2ncn1-c1ccc(Cl)cc1 [95EF] | –
83 | > 1000 nM | – | COCCn1cnc2c(sc3ncnc(NC4CC4)c32)c1=O [95EC] | –
